# Data reported in patent publication US20050107394A1, “Novel use of selective pde5 inhibitors” (priority 2001, published 2005).
# Values joined by “and” are separate entries in the source; they are usually repeats but may differ in a detail not shown here. Equal values may be shown once. “Also recorded” adds a separate entry of the source.
# Experiments:
# [1] = system: patients with ILD (interstitial lung disease) displaying secondary PHT; assay: Shunting by MIGET in patients with ILD; type: in vivo, human; conditions: 7 patients with ILD; for shunting / shunt perfusion (MIGET), level reached: baseline 7.2%, PGI i.v., NO 20 ppm inhaled, sildenafil 50 mg oral
# Description: FIG. 5: Result of determination of the shunting on 7 patients with ILD (interstitial lung disease) displaying secondary PHT. The measurement took place by the inert gas exchange method (MIGET) [Wagner et al. J Appl Physiol. 1974;36:588-99]. The shunting was reduced to 5% and 4.8%, respectively, by NO (inhaled) [20 ppm] and sildenafil (oral) [50 mg]. The shunting was increased to 18% after administration of PGI (prostacyclin, intravenous) […]].
# (§1) 7 patients with ILD underwent a Swan-Ganz catheter investigation with measurement of the ventilation/perfusion (V/Q) distribution (using the multiple inert gas elimination technique (MIGET)). After determination of the baseline parameters (haemodynamics and gas exchange), all the patients initially inhaled 20 ppm NO, followed by a second baseline period (10-15 min), and then PGI was infused (6 ng/kg bodyweight/min), again followed by a second baseline period (10-15 min) and then an oral dose of 50 mg of sildenafil was given (120-150 min follow-up). 5 of the 7 patients were controlled by continuous nasal oxygen therapy in order to reach an arterial oxygenation of >88%. The following parameters were measured under baseline conditions: mean pulmonary arterial pressure (mPAP) 39.6+/−2.8 mmHg and pulmonary vascular resistance index (PVRI) 1255+/−215 dyn*s*cm−5*m^2.
# [2] = system: bleomycin-induced pulmonary fibrosis in rabbits; assay: Oxygenation index (PaO2/FiO2) in bleomycin-induced pulmonary fibrosis; type: in vivo, rabbit; conditions: for effect on O2 saturation: FIG. 2; for oxygenation index (PaO2/FiO2), raised compared with the control (190): NO 20 ppm inhaled, sildenafil 1 mg/kg oral
# Description: FIG. 2: Result of determination of the oxygenation index (arterial oxygen partial pressure/fraction of inspired oxygen [PaO2/FiO2]) measured in the model of bleomycin-induced pulmonary fibrosis in rabbits. Whereas systemic PGI (6 ng/kg body weight/min] (PGI, prostacyclin) reduces the oxygenation index by 60% compared with the control (190), the oxygenation index was markedly raised by inhaled NO [20 ppm] by 28% and sildenafil (oral) [1 mg/kg body weight] by 31%.
# Healthy rabbits of both sexes were pretreated orally with a gyrase inhibitor (Baytril®) for one week. Ten animals pretreated in this way were not treated with bleomyin and served as control, and, on the day of exposure, the others were anaesthetized with a Ketanest®/Rompun® mixture, intubated intratracheally and ventilated mechanically. An ultrasonic nebulizer (MMAD 2.5 μm) was used to administer by inhalation exactly 1.8 U/kg of bodyweight of bleomycin under volume-controlled ventilation. After 4, 8, 16, 24, 32 and 64 days (in each case n≧5) post exposure, the animals were again anaesthetized, provided with an arterial access (right carotid artery) and underwent bodyweight-adapted ventilation via a tracheostomy in a volume-controlled method. The arterial pO2 and pCO2, and the static compliance of the lung were measured (by recording the intrathoracic pressure and with slow inflation/deflation manoeuvres). Subsequently, the lungs of these animals were dissected and perfused with a Krebs Hensefeit buffer. Under these conditions, the capillary filtraton coefficient (cfc) was then found from the weight gain of the organ after increasing the pulmonary venous pressure by 7.5 mmHg, and the peak ventilation pressure was found. After completion of these measurements, the left main bronchus was ligated in the end-inspiratory position and a bronchoalveolar lavage (BAL) was performed on the right lung. Subsequently, the large vessels and airways of the right lung were dissected off and the organ was homogenized. The left lung was perfusion-fixed with 4% formalin solution while maintaining a pressure gradient of 25 cm H2O and was then stored in 4% formalin until embedded. Firstly, the cells were removed from the BAL, counted and differentiated via a Papenheim stain. The cell-free BAL supernatant was then aliquoted and submitted to further analysis of the surfactant and coagulation properties and a determination of the matrix metallo proteinases (MMPs) and their inhibitors (TIMPs) and of soluble collagen. Bronchoalveolar deposition of 1.8 U/kg of bodyweight of bleomycin led initially to development of an ARDS-like event, with a massive restriction of gas exchange (paO2/FiO2 of >500 mmHg in the controls reduced to ˜110 mmHg on day 4), ground-glass opacities over all sections of the lung in the HRCT and an increase of about 5-fold in the capillary filtration coefficient (cfc). In the later phase of bleomycin-induced lung damage there was then development of pronounced fibrosis which could be confirmed on the basis of the increase in soluble collagen in the BAL and the hydroxyproline in the tissue, on the basis of the histological specimens and of the HRCT findings. […] Consistent with this, a pronounced increase in the extracellular matrix and an alveolar and also interstitial ingress of fibroblasts was observable in the histological sections. Besides the homogeneously distributed zones of fibrosis there were also thin hyperdistended sections of lung with a honeycomb appearance.
# Systemically administered PGI (vasodilatator) increased the shunting to about 30%. […] The data for O2 saturation (FIG. 2) correspond directly.
# [3] = system: patients with chronic thromboembolism and displaying secondary PHT; assay: Low V/Q perfusion by MIGET in patients with chronic thromboembolism; type: in vivo, human; conditions: for effect on low-V/Q perfusion / ventilation/perfusion distribution (words): 7 patients with CTEPH; for low V/Q perfusion (MIGET), level reached: 7 patients, control 3.25%, PGI i.v. 6 ng/kg/min, NO 20 ppm inhaled, sildenafil 50 mg oral
# Description: FIG. 3: Result of determination of the low V/Q perfusion measured by the inert gas exchange method (MIGET) [Wagner et al. J Appl Physiol. 1974;36:588-99] from 7 patients with chronic thromboembolism and displaying secondary PHT (pulmonary hypertension). Compared with the control group (3.25%), the shunting was increased with PGI (i.v.) [6 ng/kg bodyweight/min] to 19%, with NO (inhaled) [20 ppm] to 5.3% and with sildenafil (oral) [50 mg] to 5.3%.
# as §1, with “with CTEPH” for “with ILD”, “follow-up). 3” for “follow-up). 5”, “(mPAP) 52.1 +/−3.3 mmHg, cardiac index (CI) 2.2+/−0.1 |* min^−1*m^−2,” for “(mPAP) 39.6+/−2.8 mmHg and”, “(PVRI) 1703.8+/−129.5 […], arterial pO2 72.5+/−3.3 mmHg and mixed venous oxygen saturation (SvO2) of 63.4+/−2.2%.” for “(PVRI) 1255+/−215 dyn*s*cm−5*m^2.”
# [4] = system: patients with COPD (chronic obstructive pulmonary disease); assay: 6-minutes walking test in COPD patients; type: in vivo, human; conditions: 6 months
# Description: FIG. 7: Result of the 6-minutes walking test measured on 4 patients with COPD (chronic obstructive pulmonary disease). […]
structure (smiles),measurement,setting,value
"[N]=O [NO, nitric oxide]",effect on shunting / ventilation/perfusion distribution,[1],virtually unchanged; also recorded: no effect
same,"shunting / shunt perfusion (MIGET), level reached",[1],5%
same,effect on O2 saturation,[2],marked increases in O2 saturation
same,"oxygenation index (PaO2/FiO2), raised compared with the control (190)",[2],28%
same,effect on low-V/Q perfusion / ventilation/perfusion distribution (words),[3],virtually unchanged; also recorded: increased slightly
same,"low V/Q perfusion (MIGET), level reached",[3],5.3%
"CCCCC[C@H](O)/C=C/[C@@H]1[C@H]2C/C(=C/CCCC(=O)O)O[C@H]2C[C@H]1O [PGI, prostacyclin]","shunting / shunt perfusion (MIGET), level reached",[1],18% and ~20%
same,effect on O2 saturation,[2],reduced O2 saturation
same,"oxygenation index (PaO2/FiO2), reduction compared with the control (190)",[2]; PGI 6 ng/kg/min systemic,60%
same,effect on low-V/Q perfusion / ventilation/perfusion distribution (words),[3],greatly increased
same,"low V/Q perfusion (MIGET), level reached",[3],19%
"CCCc1nn(C)c2c(=O)[nH]c(-c3cc(S(=O)(=O)N4CCN(C)CC4)ccc3OCC)nc12 [sildenafil, 5-[2-ethoxy-5-(4-methyl-1-piperazinyl-sulphonyl)phenyl]-1-methyl-3-n-propyl-1,6-dihydro-7H-pyrazolo[4,3-d]pyrimidin-7-one]",effect on shunting / ventilation/perfusion distribution,[1],virtually unchanged; also recorded: no effect
same,"shunting / shunt perfusion (MIGET), level reached",[1],4.8%
same,"6-minutes walking distance, improvement compared with the starting point (0 months), one value per patient","[4]; 4 COPD patients, 75 mg sildenafil oral each day",41% and 45% and 74% and 150%
same,"functional capacity (6-min walking, arterial O2 saturation), words","[4]; 4 patients, 50 mg/d sildenafil oral",marked improvement
same,effect on O2 saturation,[2],marked increases in O2 saturation
same,"oxygenation index (PaO2/FiO2), raised compared with the control (190)",[2],31%
same,effect on low-V/Q perfusion / ventilation/perfusion distribution (words),[3],virtually unchanged
same,effect on low-V/Q perfusion / ventilation/perfusion distribution (words),[3]; listed as Sildenafil,same effect as NO (inhaled)
same,"low V/Q perfusion (MIGET), level reached",[3],5.3%
